For this assay, the system named is K562 cells. Briefly: Annexin-V/PI assay of ultrasonically induced apoptosis in the presence of active oxygen scavengers. The format is cell-based, Human. The conditions noted are these: L-histidine 10 mM and/or mannitol 100 mM; for percentage of cells displaying phosphatidylserine externalization: 5 hours post-treatment, mean ± SEM, 4 experiments. The protocol: Human leukemia cell lines (K562, Nalm-6, KG1a, and HL-60) obtained from the American Type Culture Collection (ATCC, Rockville, Md., USA) were grown in RPMI-1640 (BioWhittaker, Walkersville, Md., USA) supplemented with 10% fetal calf serum (Gibco, Grand Island, N.Y., USA) and 1% L-glutamine (Gibco). Leukemic cells were harvested, resuspended in phosphate-buffered saline (PBS, pH=7.2, Gibco), and immediately used for the experiment. Heparinized venous blood was obtained from healthy volunteers and leukemic patients. Mononuclear cells were separated by Ficoll-Hypaque gradient density centrifugation (International Medical Products, Brussels, Belgium). The following describes the ultrasonic treatment on the cells. Human leukemia cell lines (K562, HL-60, KG1a, and Nalm-6), primary leukemic cells, and normal mononuclear cells were treated by ultrasound at a frequency of 1.8 MHz during various exposure times at an acoustical power of 7 mW/mL and irradiation (ON/OFF) cycles of 5.5 ms/3 ms. During apoptosis, phosphatidylserine residues flip from the inside to the outside of the plasma membrane and this change can be detected using Annexin-FITC, which binds to the PS residues. The following describes an Annexin V binding assay that was performed. Flow cytometric analysis of Annexin-V-fluorescein isothiocyanate (FITC)-and propidium iodide (PI)-stained cells was performed using the kit purchased from Biosource International (Camarillo, Calif., USA) as recommended by the manufacturer. Data were presented as dot plots showing the change in mean fluorescence intensity of Annexin-V-FITC/propidium iodide (not shown). The following procedure was performed to determine the effect of active oxygen scavengers on the induction of apoptosis by high-frequency ultrasound. K562 cells were incubated with L-histidine (10 mM) and/or mannitol (100 mM). Some cells were treated by high-frequency ultrasound and others were not. Cell apoptosis was detected by an Annexin-V/PI assay.

By inhibition is commonly meant the drop in the measured response relative to a control, in per cent.

Structures are written as SMILES.

For the compound `N[C@@H](Cc1c[nH]cn1)C(=O)O` [Histidine, L-histidine], the “percentage of cells displaying phosphatidylserine externalization” value is, setting by setting: (1 US treatment) 24 ± 8%; (3 US treatments) 36 ± 11%; (No US treatment) 15 ± 5%. Moreover, where the note is “apoptosis induced by 3 successive ultrasound treatments”, the inhibition of apoptosis is 43%.
In the case of `OC[C@@H](O)[C@@H](O)[C@H](O)[C@H](O)CO` [Mannitol, mannitol], the “percentage of cells displaying phosphatidylserine externalization” value by setting is: (1 US treatment) 21 ± 5%; (3 US treatments) 30 ± 3%; (No US treatment) 11 ± 4%. In addition, the inhibition at 100000 µM (Homo sapiens, K562, apoptosis induced by 3 successive ultrasound treatments) came to 47%.
